These results are taken from patent US20120225862A1, “HETEROARYL BENZAMIDES, COMPOSITIONS AND METHODS OF USE” (AUCKLAND UNIVSERVICES LIMITED, priority 2009, published 2012).

Assay [1] has as its system RCC4/VHL cell clones overexpressing HIF-2α. Put plainly: Sensitivity of RCC4/VHL clones overexpressing HIF. It counts as cell-based, human. The note with it: two HIF-overexpressing RCC4/VHL clones, FIG. 2G. As to the method:
As the hypoxia-inducible factor family of transcription factors are the best-characterized VHL targets, we next examined whether toxicity was HIF-dependent. A non-degradable, constitutively active HIF was overexpressed in RCC4/VHL cells. Two individual HIF-overexpressing clones were tested for their sensitivity to compound 47. […] Furthermore, the sensitivity of RCCs that lack functional VHL to compound 47 is directly linked to the aberrant upregulation of HIF.

Assay [2] relates to LC3. Kind of assay: Autophagy markers (vacuoles, LC3 processing). The following applies: RCC4 and RCC4/VHL, 1.25, 2.5 and 5 μM. It counts as cell-based, human. The procedure: (A) Clonogenic survival of RCC4 and RCC4/VHL treated with […] (5 μM)(*p<0.05). All error bars represent the standard error of the mean. […] RCC4 and RCC4/VHL cells were treated with increasing concentrations of compound 47 (1.25, 2.5 and 5 μM), a negative control (DMSO) and a positive control (4-(pyridin-4-yl)-N-(m-tolyl)thiazol-2-amine). Cells were lysed and probed for LC3, a marker of autophagy, or α-tubulin (loading control). […] RCC4 and RCC4/VHL cells were treated with vehicle, increasing concentrations of compound 47, and camptothecin. Cells were stained with DAPI and nuclear condensation was examined by fluorescence microscopy. (D) RCC4 cells were treated with compound 47 (5 μM) for the indicated time and stained with Annexin V and propidium iodide and subjected to FACS analysis. […] RCC4 and RCC4/VHL cells were subjected to increasing concentrations of compound 47 (1.25, 2.5, and 5 μM), a negative control (DMSO), and a positive control (doxorubicin). Cells were lysed and subjected to Western blot with the indicated antibodies.
However, RCC cells without VHL undergo a necrotic cell death in response to compound 47 as measured by the ability of the cells to exclude trypan blue, an indicator of cell membrane integrity.

For assay [3], the system named is RCC4/VHL. Put plainly: 3H-2-deoxyglucose uptake, RCC4/VHL. It counts as cell-based, human. The following applies: 5 μM. As to the method: One hundred thousand cells were plated into 6-well plates. The following day, the cells were treated with vehicle or drug and incubated for the indicated time. Cells were washed twice in phosphate buffered saline and low glucose media was added for 30 minutes. Cells were then incubated with 0.5 microCi of tritiated-2-deoxyglucose and incubated for an hour at 37° C. Cells were washed twice in PBS and then lysed in 0.2 N NaOH and 0.2% SDS. Lysates were transferred to scintillation tubes with scintillation fluid and quantified by scintillation counter.
One hundred thousand cells were plated per well in a six-well plate. The next day, cells were treated with the indicated concentration of drug and incubated for the indicated time. Cells were then washed twice with phosphate-buffered saline, incubated in low-glucose medium for 30 minutes, and ^3H-2-deoxyglucose (0.5 μCi) was added in 1 ml of glucose-free media for an additional hour. Cells were washed twice in PBS and lysed (0.2 N NaOH and 0.2% sodium dodecyl sulfate). Glucose uptake was quantified with a scintillation counter.

Assay [4] addresses T1, Aurora-A (Homo sapiens, UniProt O14965).
T1 construct: purchased Millipore (KinaseProfiler service)
Put plainly: In vitro kinase activity (Millipore KinaseProfiler): Aurora-A. In kind it is biochemical. The following applies: no head or unit printed. The procedure: (§1) All cells were grown in DMEM+10% FCS. ACHN and ACHN shVHL were a kind gift from George V. Thomas (UCLA). HIF overexpressing clones were described previously. Transfection of RNA oligos were performed with DnarmaFECT Reagent 1 (Dharmcon), according to manufacturer's directions. ON-TARGETplus SMART pools against HIF-1β/ARNT were purchased from Dharmacon. Glut1 was detected with anti-GLUT1 antibody from NeoMarkers/LabVision/Fisher. Pyruvate/lactate levels and hexokinase activity were both measured by fluorometric assay (BioVision and Sigma-Aldrich, respectively). ATP levels were measured by bioluminescence assay (ATP Determination Kit from Molecular Probes/Invitrogen). In vitro kinase activities were performed by Millipore KinaseProfiler. Affi-Gel 10 (BioRad) activated affinity media was coupled to analogs to generate immobilized affinity linkers.
(§2) We next wanted to investigate the differential glucose uptake between RCCs with and without VHL treated with compound 47 that subsequently lead to the selective death of VHL-deficient cells. We first examined the message levels of the two main glucose transporters, GLUT1 and GLUT2 by quantitative real-time PCR. GLUT1 is an inducible, high-affinity glucose transporter, while GLUT2 is the glucose transporter responsible for basal glucose uptake. […] Cells deficient in VHL had very low levels of GLUT2 that could barely be detected (FIG. 3J). […]

Assay [5] has as its target T2, CaMKI (Homo sapiens, UniProt Q14012).
T2 construct: purchased Millipore (KinaseProfiler service)
Kind of assay: In vitro kinase activity (Millipore KinaseProfiler): CaMKI. It counts as biochemical. The note with it: no head or unit printed. The procedure: as §1, §2

For assay [6], the target named is T3, cKit(D816H) (Homo sapiens, UniProt P10721, D816H).
T3 construct: purchased Millipore (KinaseProfiler service)
Put plainly: In vitro kinase activity (Millipore KinaseProfiler): cKit(D816H). The note with it: no head or unit printed. It counts as biochemical. As to the method:
as §1, §2

Assay [7] deals with T4, GSK3α (Homo sapiens, UniProt P49840).
T4 construct: purchased Millipore (KinaseProfiler service)
Kind of assay: In vitro kinase activity (Millipore KinaseProfiler): GSK3α. In kind it is biochemical. The following applies: no head or unit printed. The procedure: as §1, §2

Assay [8] deals with T5, IRAK1 (Homo sapiens, UniProt P51617).
T5 construct: purchased Millipore (KinaseProfiler service)
Put plainly: In vitro kinase activity (Millipore KinaseProfiler): IRAK1. In kind it is biochemical. The following applies: no head or unit printed. As to the method:
as §1, §2

The target in assay [9] is T6, JNK1α1 (Homo sapiens, UniProt P45983).
T6 construct: purchased Millipore (KinaseProfiler service)
Put plainly: In vitro kinase activity (Millipore KinaseProfiler): JNK1α1. It counts as biochemical. The note with it: no head or unit printed. The procedure:
as §1, §2

Assay [10] concerns the target T7, MEK1 (Homo sapiens, UniProt Q02750).
T7 construct: purchased Millipore (KinaseProfiler service)
Put plainly: In vitro kinase activity (Millipore KinaseProfiler): MEK1. In kind it is biochemical. The following applies: no head or unit printed. The procedure: as §1, §2

In assay [11] the target is T8, MSK1 (Homo sapiens, UniProt O75582).
T8 construct: purchased Millipore (KinaseProfiler service)
Kind of assay: In vitro kinase activity (Millipore KinaseProfiler): MSK1. It counts as biochemical. The note with it: no head or unit printed. The procedure: as §1, §2

Assay [12] concerns the target T9, NEK2 (Homo sapiens, UniProt P51955).
T9 construct: purchased Millipore (KinaseProfiler service)
Put plainly: In vitro kinase activity (Millipore KinaseProfiler): NEK2. It counts as biochemical. The note with it: no head or unit printed. The procedure:
as §1, §2

T9 sequence (P51955 whole entry, species assumed): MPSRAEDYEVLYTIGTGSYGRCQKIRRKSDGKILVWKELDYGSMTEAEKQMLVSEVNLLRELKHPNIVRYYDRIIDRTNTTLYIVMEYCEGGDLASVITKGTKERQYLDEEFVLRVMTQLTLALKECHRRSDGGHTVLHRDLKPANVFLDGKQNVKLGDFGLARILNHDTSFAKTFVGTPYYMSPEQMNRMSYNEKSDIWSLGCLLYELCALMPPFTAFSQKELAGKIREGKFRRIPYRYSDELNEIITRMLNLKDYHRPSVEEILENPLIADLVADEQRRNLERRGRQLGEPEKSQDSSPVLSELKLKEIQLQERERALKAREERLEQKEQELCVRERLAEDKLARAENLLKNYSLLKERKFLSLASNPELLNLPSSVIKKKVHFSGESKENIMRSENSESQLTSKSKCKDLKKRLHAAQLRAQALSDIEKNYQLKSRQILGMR
T2 sequence (Q14012 whole entry): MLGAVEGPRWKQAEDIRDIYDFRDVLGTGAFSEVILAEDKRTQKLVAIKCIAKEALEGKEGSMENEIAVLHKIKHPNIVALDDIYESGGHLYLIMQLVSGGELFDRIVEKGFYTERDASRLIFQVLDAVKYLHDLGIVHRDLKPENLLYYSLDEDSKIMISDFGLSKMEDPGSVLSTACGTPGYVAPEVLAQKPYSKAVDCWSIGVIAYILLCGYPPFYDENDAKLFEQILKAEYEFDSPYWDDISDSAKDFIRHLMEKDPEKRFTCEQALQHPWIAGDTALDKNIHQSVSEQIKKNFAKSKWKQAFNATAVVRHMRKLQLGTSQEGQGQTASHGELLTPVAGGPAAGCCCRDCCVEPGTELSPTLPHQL
T3 sequence (P10721 26-976 D816H): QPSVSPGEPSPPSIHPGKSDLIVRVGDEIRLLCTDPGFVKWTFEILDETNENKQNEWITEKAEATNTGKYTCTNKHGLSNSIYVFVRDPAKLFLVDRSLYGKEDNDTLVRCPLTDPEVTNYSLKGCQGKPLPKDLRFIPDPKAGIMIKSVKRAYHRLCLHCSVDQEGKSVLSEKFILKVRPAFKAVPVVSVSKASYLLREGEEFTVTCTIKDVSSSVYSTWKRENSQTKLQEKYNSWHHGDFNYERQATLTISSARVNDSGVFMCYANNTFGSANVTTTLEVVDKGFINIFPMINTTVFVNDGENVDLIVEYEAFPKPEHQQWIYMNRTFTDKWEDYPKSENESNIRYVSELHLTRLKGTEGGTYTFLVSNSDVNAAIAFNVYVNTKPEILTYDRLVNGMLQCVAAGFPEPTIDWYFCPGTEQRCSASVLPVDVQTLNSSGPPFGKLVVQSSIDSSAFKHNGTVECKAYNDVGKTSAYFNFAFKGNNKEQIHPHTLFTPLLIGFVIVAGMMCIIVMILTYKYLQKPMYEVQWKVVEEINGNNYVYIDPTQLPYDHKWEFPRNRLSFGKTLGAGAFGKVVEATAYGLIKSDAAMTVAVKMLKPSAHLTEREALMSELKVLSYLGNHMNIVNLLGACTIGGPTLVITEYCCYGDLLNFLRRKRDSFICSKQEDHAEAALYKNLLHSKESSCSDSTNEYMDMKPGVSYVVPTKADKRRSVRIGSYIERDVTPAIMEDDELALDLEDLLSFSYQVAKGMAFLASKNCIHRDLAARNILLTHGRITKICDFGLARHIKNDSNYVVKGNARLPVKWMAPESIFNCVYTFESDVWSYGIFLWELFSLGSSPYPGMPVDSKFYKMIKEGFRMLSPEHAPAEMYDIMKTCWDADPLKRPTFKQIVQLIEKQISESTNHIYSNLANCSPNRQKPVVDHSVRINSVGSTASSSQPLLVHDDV
T6 sequence (P45983 1-384 isoform P45983-2, species assumed): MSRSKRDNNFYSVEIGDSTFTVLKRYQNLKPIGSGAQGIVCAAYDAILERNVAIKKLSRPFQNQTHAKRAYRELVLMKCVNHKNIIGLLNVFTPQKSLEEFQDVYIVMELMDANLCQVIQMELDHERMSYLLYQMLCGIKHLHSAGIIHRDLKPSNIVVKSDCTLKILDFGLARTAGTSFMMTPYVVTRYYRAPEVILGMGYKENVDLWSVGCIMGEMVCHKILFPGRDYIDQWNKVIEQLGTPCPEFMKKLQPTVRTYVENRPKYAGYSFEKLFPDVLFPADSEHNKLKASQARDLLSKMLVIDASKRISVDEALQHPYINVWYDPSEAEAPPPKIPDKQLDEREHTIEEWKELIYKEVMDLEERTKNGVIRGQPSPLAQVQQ
T5 sequence (P51617 whole entry, species assumed): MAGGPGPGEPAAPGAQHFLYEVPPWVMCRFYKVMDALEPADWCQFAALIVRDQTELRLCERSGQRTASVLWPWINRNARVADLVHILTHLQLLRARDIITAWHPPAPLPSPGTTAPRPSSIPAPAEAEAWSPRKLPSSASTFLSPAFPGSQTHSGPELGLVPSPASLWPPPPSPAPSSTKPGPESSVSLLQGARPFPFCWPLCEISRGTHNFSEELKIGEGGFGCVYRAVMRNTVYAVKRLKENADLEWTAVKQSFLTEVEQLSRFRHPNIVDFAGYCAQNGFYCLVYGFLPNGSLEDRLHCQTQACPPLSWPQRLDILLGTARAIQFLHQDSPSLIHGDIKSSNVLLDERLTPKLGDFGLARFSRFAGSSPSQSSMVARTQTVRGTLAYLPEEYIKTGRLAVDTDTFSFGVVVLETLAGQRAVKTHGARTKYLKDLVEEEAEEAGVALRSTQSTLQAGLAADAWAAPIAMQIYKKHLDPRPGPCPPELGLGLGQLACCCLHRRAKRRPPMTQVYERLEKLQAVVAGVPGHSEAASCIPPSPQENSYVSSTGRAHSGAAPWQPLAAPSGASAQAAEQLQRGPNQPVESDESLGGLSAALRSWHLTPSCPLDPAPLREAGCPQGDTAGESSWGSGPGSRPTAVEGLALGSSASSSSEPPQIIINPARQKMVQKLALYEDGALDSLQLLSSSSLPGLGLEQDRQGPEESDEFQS
T7 sequence (Q02750 whole entry, species assumed): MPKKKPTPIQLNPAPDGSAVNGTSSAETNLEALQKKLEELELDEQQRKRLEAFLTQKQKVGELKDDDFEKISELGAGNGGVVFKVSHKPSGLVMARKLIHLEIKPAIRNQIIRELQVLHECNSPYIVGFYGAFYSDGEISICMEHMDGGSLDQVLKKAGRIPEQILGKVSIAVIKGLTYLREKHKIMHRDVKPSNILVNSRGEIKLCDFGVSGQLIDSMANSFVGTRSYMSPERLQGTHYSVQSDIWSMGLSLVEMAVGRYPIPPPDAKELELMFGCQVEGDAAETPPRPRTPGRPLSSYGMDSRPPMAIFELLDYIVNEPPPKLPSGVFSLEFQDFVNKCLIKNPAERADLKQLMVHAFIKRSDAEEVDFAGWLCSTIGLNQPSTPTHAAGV
T8 sequence (O75582 whole entry, species assumed): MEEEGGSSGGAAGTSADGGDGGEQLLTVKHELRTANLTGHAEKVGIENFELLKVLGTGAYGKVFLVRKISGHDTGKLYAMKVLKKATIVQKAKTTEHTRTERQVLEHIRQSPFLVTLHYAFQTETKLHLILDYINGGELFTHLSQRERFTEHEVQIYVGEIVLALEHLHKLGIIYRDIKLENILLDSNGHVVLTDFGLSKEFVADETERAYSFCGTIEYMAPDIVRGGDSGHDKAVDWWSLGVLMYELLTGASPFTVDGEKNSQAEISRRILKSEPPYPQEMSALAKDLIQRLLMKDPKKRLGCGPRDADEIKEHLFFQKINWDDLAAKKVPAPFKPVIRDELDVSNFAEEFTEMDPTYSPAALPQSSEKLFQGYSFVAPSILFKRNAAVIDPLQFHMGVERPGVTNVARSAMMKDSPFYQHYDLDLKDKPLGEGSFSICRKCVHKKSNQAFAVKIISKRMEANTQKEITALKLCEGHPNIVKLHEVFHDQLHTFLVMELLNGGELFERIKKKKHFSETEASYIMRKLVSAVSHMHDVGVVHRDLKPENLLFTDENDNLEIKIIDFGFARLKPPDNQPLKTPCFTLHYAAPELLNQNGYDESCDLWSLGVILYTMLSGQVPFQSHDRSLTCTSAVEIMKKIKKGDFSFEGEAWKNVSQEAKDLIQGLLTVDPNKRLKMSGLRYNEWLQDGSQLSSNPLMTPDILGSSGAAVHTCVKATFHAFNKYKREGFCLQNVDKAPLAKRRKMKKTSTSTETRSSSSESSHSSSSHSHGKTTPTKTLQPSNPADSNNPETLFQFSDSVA
T4 sequence (P49840 whole entry, species assumed): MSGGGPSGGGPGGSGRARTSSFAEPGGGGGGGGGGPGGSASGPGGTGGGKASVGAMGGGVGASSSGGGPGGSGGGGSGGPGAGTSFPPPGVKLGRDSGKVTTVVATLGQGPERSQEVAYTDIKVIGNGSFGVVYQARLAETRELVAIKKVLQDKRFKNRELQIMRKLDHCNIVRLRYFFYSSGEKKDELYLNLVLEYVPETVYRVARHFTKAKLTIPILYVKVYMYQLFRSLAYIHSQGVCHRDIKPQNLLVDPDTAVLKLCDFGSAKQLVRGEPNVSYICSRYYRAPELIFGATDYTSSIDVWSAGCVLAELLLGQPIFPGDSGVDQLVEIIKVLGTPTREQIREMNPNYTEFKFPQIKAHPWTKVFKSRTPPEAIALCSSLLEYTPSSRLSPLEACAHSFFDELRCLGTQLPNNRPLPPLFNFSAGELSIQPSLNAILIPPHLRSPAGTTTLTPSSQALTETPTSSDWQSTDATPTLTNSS
T1 sequence (O14965 whole entry): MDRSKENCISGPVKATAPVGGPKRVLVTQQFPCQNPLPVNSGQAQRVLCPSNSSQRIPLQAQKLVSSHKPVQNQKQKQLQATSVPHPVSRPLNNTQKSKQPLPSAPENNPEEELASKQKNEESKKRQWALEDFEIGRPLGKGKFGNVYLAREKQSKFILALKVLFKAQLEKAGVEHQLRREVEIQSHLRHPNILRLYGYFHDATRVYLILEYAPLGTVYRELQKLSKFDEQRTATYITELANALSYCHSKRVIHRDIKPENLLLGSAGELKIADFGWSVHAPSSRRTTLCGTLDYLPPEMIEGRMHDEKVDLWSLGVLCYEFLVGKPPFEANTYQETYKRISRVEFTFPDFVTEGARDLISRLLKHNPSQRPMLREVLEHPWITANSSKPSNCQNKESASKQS

For the compound `CC(C)(C)c1ccc(S(=O)(=O)NCc2ccc(C(=O)Nc3cccnc3)cc2)cc1` [Example 38, 4-((4-tert-Butylphenylsulfonamido)methyl)-N-(pyridin-3-yl)benzamide], the “effect of ectopic HIF expression in wild-type VHL cells on sensitivity” value in assay [1] is on record as “sensitized these cells”. For the same compound, the “induction of autophagy (vacuoles, LC3 processing)” value in assay [2] was “did not induce any morphologic or biochemical features of autophagy”. The “glucose uptake in RCC4/VHL cells” value in [3] is listed as “unaffected”. Also, the Aurora-A kinase activity in assay [4] amounted to 108%. In addition, the CaMKI kinase activity in [5] is given as 87. In addition, the “cKit(D816H) kinase activity” value in [6] is given as 99. In addition, the GSK3α kinase activity in assay [7] worked out at 134. Further, the IRAK1 kinase activity in [8] turned out to be 105%. This compound returned a JNK1α1 kinase activity in [9] of 101. The same compound displayed an MEK1 kinase activity in assay [10] of 99. For the same compound, the MSK1 kinase activity in assay [11] came to 107. For the same compound, in [12], the NEK2 kinase activity stood at 103.
